Measured values: PubChem BioAssay AID248 (DTP/NCI, 2004)
Where “and” joins values, the source holds several entries; their conditions need not be identical. Equal values may be shown once. Toxic doses and inconclusive results are not listed.

Test system: L1210 leukemia ip in BDF1 mice, survival T/C
Assay: NCI In Vivo Anticancer Drug Screen. Data for tumor model L1210 Leukemia (intraperitoneal) in B6D2F1 (BDF1) mice
Details: higher = longer survival
How it was run: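 Antitumor effect is assessed in tumor-bearing animals. Survival in the compound arm is compared with a vehicle-dosed control arm and expressed as their quotient.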

[1] = endpoint: mean survival time, dose: 25.0 mg/kg/injection, schedule: Q01DX009 (ip), vehicle: Klucel (hydroxypropylcellulose) (HPC)
[2] = endpoint: mean survival time, dose: 50.0 mg/kg/injection, schedule: Q01DX009 (ip), vehicle: Klucel (hydroxypropylcellulose) (HPC)
[3] = endpoint: mean survival time, dose: 100.0 mg/kg/injection, schedule: Q01DX009 (ip), vehicle: Klucel (hydroxypropylcellulose) (HPC)
[4] = endpoint: mean survival time, dose: 200.0 mg/kg/injection, schedule: Q01DX009 (ip), vehicle: Klucel (hydroxypropylcellulose) (HPC)
[5] = endpoint: mean survival time, dose: 400.0 mg/kg/injection, schedule: Q01DX009 (ip), vehicle: Klucel (hydroxypropylcellulose) (HPC)
[6] = endpoint: mean survival time, dose: 100.0 mg/kg/injection, schedule: Q04DX003 (ip), vehicle: saline with Tween-80
[7] = endpoint: mean survival time, dose: 200.0 mg/kg/injection, schedule: Q04DX003 (ip), vehicle: saline with Tween-80
[8] = endpoint: mean survival time, dose: 400.0 mg/kg/injection, schedule: Q04DX003 (ip), vehicle: saline with Tween-80

Structure (SMILES): C1=Nc2ccccc2/C1=C/c1ccc2c(c1)OCO2
- T/C (endpoint: mean survival time, dose: 100.0 mg/kg/injection, schedule: Q01DX009 (ip), vehicle: carboxymethylcellulose (CMC)): 97 % of control and 102 % of control
- T/C (endpoint: mean survival time, dose: 100.0 mg/kg/injection, schedule: Q04DX002 (ip), vehicle: carboxymethylcellulose (CMC)): 93 % of control and 102 % of control
- T/C (endpoint: mean survival time, dose: 100.0 mg/kg/injection, schedule: Q04DX003 (ip), vehicle: carboxymethylcellulose (CMC)): 98 % of control
- T/C (endpoint: mean survival time, dose: 200.0 mg/kg/injection, schedule: Q01DX009 (ip), vehicle: carboxymethylcellulose (CMC)): 96 % of control and 87 % of control
- T/C (endpoint: mean survival time, dose: 200.0 mg/kg/injection, schedule: Q04DX002 (ip), vehicle: carboxymethylcellulose (CMC)): 93 % of control and 98 % of control
- T/C (endpoint: mean survival time, dose: 200.0 mg/kg/injection, schedule: Q04DX003 (ip), vehicle: carboxymethylcellulose (CMC)): 93 % of control
- T/C (endpoint: mean survival time, dose: 400.0 mg/kg/injection, schedule: Q01DX009 (ip), vehicle: carboxymethylcellulose (CMC)): 93 % of control and 94 % of control
- T/C (endpoint: mean survival time, dose: 400.0 mg/kg/injection, schedule: Q04DX002 (ip), vehicle: carboxymethylcellulose (CMC)): 104 % of control and 107 % of control
- T/C (endpoint: mean survival time, dose: 400.0 mg/kg/injection, schedule: Q04DX003 (ip), vehicle: carboxymethylcellulose (CMC)): 96 % of control

Structure (SMILES): O=S1(=O)CC(Br)C1
- T/C (endpoint: mean survival time, dose: 12.5 mg/kg/injection, schedule: Q04DX002 (ip), vehicle: Klucel (hydroxypropylcellulose) (HPC)): 86 % of control
- T/C [1]: 96 % of control
- T/C (endpoint: mean survival time, dose: 25.0 mg/kg/injection, schedule: Q04DX002 (ip), vehicle: Klucel (hydroxypropylcellulose) (HPC)): 93 % of control
- T/C [2]: 96 % of control
- T/C (endpoint: mean survival time, dose: 50.0 mg/kg/injection, schedule: Q04DX002 (ip), vehicle: Klucel (hydroxypropylcellulose) (HPC)): 109 % of control

Structure (SMILES): CCOC(=O)C(CC(=O)O)C1=CCCc2ccccc21 (stereo unspecified)
- T/C (endpoint: mean survival time, dose: 100.0 mg/kg/injection, schedule: Q01DX001 (ip), vehicle: Klucel (hydroxypropylcellulose) (HPC)): 96 % of control
- T/C [3]: 90 % of control
- T/C (endpoint: mean survival time, dose: 200.0 mg/kg/injection, schedule: Q01DX001 (ip), vehicle: Klucel (hydroxypropylcellulose) (HPC)): 104 % of control
- T/C [4]: 91 % of control
- T/C (endpoint: mean survival time, dose: 400.0 mg/kg/injection, schedule: Q01DX001 (ip), vehicle: Klucel (hydroxypropylcellulose) (HPC)): 90 % of control
- T/C [5]: 90 % of control

Structure (SMILES): COc1ccc(O)c(/C=C\C=O)c1
- T/C (endpoint: mean survival time, dose: 100.0 mg/kg/injection, schedule: Q01DX001 (ip), vehicle: carboxymethylcellulose (CMC)): 100 % of control
- T/C (endpoint: mean survival time, dose: 200.0 mg/kg/injection, schedule: Q01DX001 (ip), vehicle: carboxymethylcellulose (CMC)): 100 % of control
- T/C (endpoint: mean survival time, dose: 400.0 mg/kg/injection, schedule: Q01DX001 (ip), vehicle: carboxymethylcellulose (CMC)): 106 % of control

Structure (SMILES): Cc1cc(C)c(C(=O)OC(c2ccccc2)C(c2ccccc2)N2CCOCC2)c(C)c1 (stereo unspecified)
- T/C (endpoint: mean survival time, dose: 75.0 mg/kg/injection, schedule: Q01DX001 (ip), vehicle: saline): 96 % of control
- T/C (endpoint: mean survival time, dose: 150.0 mg/kg/injection, schedule: Q01DX001 (ip), vehicle: saline): 97 % of control
- T/C (endpoint: mean survival time, dose: 300.0 mg/kg/injection, schedule: Q01DX001 (ip), vehicle: saline): 86 % of control

Structure (SMILES): CCOC(=O)c1c[nH]c(=O)c([N+](=O)[O-])c1O
- T/C (endpoint: mean survival time, dose: 100.0 mg/kg/injection, schedule: Q01DX009 (ip), vehicle: saline with Tween-80): 98 % of control
- T/C [6]: 96 % of control
- T/C (endpoint: mean survival time, dose: 200.0 mg/kg/injection, schedule: Q01DX009 (ip), vehicle: saline with Tween-80): 109 % of control
- T/C [7]: 98 % of control
- T/C (endpoint: mean survival time, dose: 400.0 mg/kg/injection, schedule: Q01DX009 (ip), vehicle: saline with Tween-80): 92 % of control
- T/C [8]: 90 % of control

Structure (SMILES): O=C(N[C@H](CO)[C@H](O)c1ccc([N+](=O)[O-])cc1)C(Cl)Cl
- T/C (endpoint: mean survival time, dose: 316.0 mg/kg/injection, schedule: Q01DX001 (ip), vehicle: carboxymethylcellulose (CMC)): 106 % of control
- T/C (endpoint: mean survival time, dose: 475.0 mg/kg/injection, schedule: Q01DX001 (ip), vehicle: carboxymethylcellulose (CMC)): 115 % of control
- T/C (endpoint: mean survival time, dose: 720.0 mg/kg/injection, schedule: Q01DX001 (ip), vehicle: carboxymethylcellulose (CMC)): 113 % of control
- T/C (endpoint: median survival time, dose: 274.4 mg/kg/injection, schedule: Q01DX001 (ip), vehicle: saline): 105 % of control
- T/C (endpoint: median survival time, dose: 392.0 mg/kg/injection, schedule: Q01DX001 (ip), vehicle: saline): 100 % of control and 101 % of control
- T/C (endpoint: median survival time, dose: 560.0 mg/kg/injection, schedule: Q01DX001 (ip), vehicle: saline): 93 % of control and 94 % of control and 95 % of control
- T/C (endpoint: median survival time, dose: 560.0 mg/kg/injection, schedule: Q03DX001 (ip), vehicle: saline): 88 % of control
- T/C (endpoint: median survival time, dose: 800.0 mg/kg/injection, schedule: Q01DX001 (ip), vehicle: saline): 99 % of control and 100 % of control and 102 % of control
- T/C (endpoint: median survival time, dose: 800.0 mg/kg/injection, schedule: Q03DX001 (ip), vehicle: saline): 100 % of control

Structure (SMILES): O=C(Nc1ccc(C2=NCCCN2)cc1)c1ccc(C(=O)Nc2ccc(C3=NCCCN3)cc2)nc1
- T/C (endpoint: mean survival time, dose: 1.5 mg/kg/injection, schedule: Q01DX Z (ip), vehicle: water): 122 % of control
- T/C (endpoint: mean survival time, dose: 3.0 mg/kg/injection, schedule: Q01DX Z (ip), vehicle: water): 114 % of control
- T/C (endpoint: mean survival time, dose: 3.0 mg/kg/injection, schedule: Q01DX Z (oral), vehicle: water): 97 % of control
- T/C (endpoint: mean survival time, dose: 6.0 mg/kg/injection, schedule: Q01DX Z (ip), vehicle: water): 172 % of control
- T/C (endpoint: mean survival time, dose: 6.25 mg/kg/injection, schedule: Q01DX Z (oral), vehicle: water): 95 % of control
- T/C (endpoint: mean survival time, dose: 7.5 mg/kg/injection, schedule: Q01DX001 (ip), vehicle: water): 118 % of control
- T/C (endpoint: mean survival time, dose: 12.5 mg/kg/injection, schedule: Q01DX Z (oral), vehicle: water): 89 % of control
- T/C (endpoint: mean survival time, dose: 25.0 mg/kg/injection, schedule: Q01DX Z (oral), vehicle: water): 91 % of control

Structure (SMILES): CN(C)CCC(C=O)(CCN(C)C)c1cccc2ccccc12
- T/C (endpoint: mean survival time, dose: 25.0 mg/kg/injection, schedule: Q04DX002 (ip), vehicle: saline with Tween-80): 116 % of control
- T/C (endpoint: mean survival time, dose: 50.0 mg/kg/injection, schedule: Q04DX002 (ip), vehicle: saline with Tween-80): 94 % of control
- T/C (endpoint: mean survival time, dose: 100.0 mg/kg/injection, schedule: Q04DX002 (ip), vehicle: saline with Tween-80): 94 % of control

Structure (SMILES): CSc1nc(N)nc2c1ncn2C1OC(CO)CC1O (stereo unspecified)
- T/C (endpoint: mean survival time, dose: 100.0 mg/kg/injection, schedule: Q01DX001 (ip), vehicle: saline): 107 % of control
- T/C (endpoint: mean survival time, dose: 200.0 mg/kg/injection, schedule: Q01DX001 (ip), vehicle: saline): 104 % of control
- T/C (endpoint: mean survival time, dose: 400.0 mg/kg/injection, schedule: Q01DX001 (ip), vehicle: saline): 115 % of control

Structure (SMILES): CC(C)c1ccc(/C=C2\N=C(c3ccc([N+](=O)[O-])cc3)OC2=O)cc1
- T/C [3]: 100 % of control
- T/C [4]: 100 % of control
- T/C [5]: 98 % of control

Structure (SMILES): O=C1N(O)C23CCCC(Br)C2ON=C3C12CCCCC2 (stereo unspecified)
- T/C (endpoint: mean survival time, dose: 100.0 mg/kg/injection, schedule: Q01DX001 (ip), vehicle: saline with Tween-80): 112 % of control
- T/C [6]: 106 % of control
- T/C (endpoint: mean survival time, dose: 200.0 mg/kg/injection, schedule: Q01DX001 (ip), vehicle: saline with Tween-80): 112 % of control
- T/C [7]: 98 % of control
- T/C (endpoint: mean survival time, dose: 400.0 mg/kg/injection, schedule: Q01DX001 (ip), vehicle: saline with Tween-80): 104 % of control
- T/C [8]: 95 % of control

Structure (SMILES): COc1ccc(C2NC(=S)N3C(c4ccc(OC)c(OC)c4)NC(=S)N23)cc1OC (stereo unspecified)
- T/C (endpoint: mean survival time, dose: 100.0 mg/kg/injection, schedule: Q01DX009 (ip), vehicle: gum acacia): 88 % of control
- T/C (endpoint: mean survival time, dose: 100.0 mg/kg/injection, schedule: Q04DX003 (ip), vehicle: gum acacia): 95 % of control
- T/C (endpoint: mean survival time, dose: 200.0 mg/kg/injection, schedule: Q01DX009 (ip), vehicle: gum acacia): 88 % of control
- T/C (endpoint: mean survival time, dose: 200.0 mg/kg/injection, schedule: Q04DX003 (ip), vehicle: gum acacia): 89 % of control
- T/C (endpoint: mean survival time, dose: 400.0 mg/kg/injection, schedule: Q01DX009 (ip), vehicle: gum acacia): 90 % of control

Structure (SMILES): CC(C)CCNc1ncnc2[nH]ncc12
- T/C (endpoint: mean survival time, dose: 12.5 mg/kg/injection, schedule: Q01DX009 (ip), vehicle: Klucel (hydroxypropylcellulose) (HPC)): 117 % of control
- T/C [1]: 104 % of control
- T/C [2]: 109 % of control

Structure (SMILES): O=C1C=C(NNc2ccccc2)CCC1
- T/C (endpoint: mean survival time, dose: 75.0 mg/kg/injection, schedule: Q01DX001 (ip), vehicle: steriod suspending solution): 92 % of control
- T/C (endpoint: mean survival time, dose: 150.0 mg/kg/injection, schedule: Q01DX001 (ip), vehicle: steriod suspending solution): 95 % of control
- T/C (endpoint: mean survival time, dose: 300.0 mg/kg/injection, schedule: Q01DX001 (ip), vehicle: steriod suspending solution): 92 % of control

Structure (SMILES): CCCNCCCCCCNCCC
- T/C (endpoint: mean survival time, dose: 100.0 mg/kg/injection, schedule: Q04DX003 (ip), vehicle: saline): 98 % of control
